Data on three compounds can be found in paper PMC12394665, “Structural and biochemical basis for activity of Aspergillus nidulans α-1,3-glucanases from glycoside hydrolase family 71” (Communications Biology, 2025).

For experiment [1], the target named is T1, AnGH71C (Aspergillus nidulans, UniProt G5EB58).
T1 construct: gene ANIA_07349; putative signal peptide removed; N-terminal His6 tag, modified pET-28a with TEV site; recombinant E. coli BL21 (DE3); IMAC and gel filtration
T1 sequence (G5EB58 23-431): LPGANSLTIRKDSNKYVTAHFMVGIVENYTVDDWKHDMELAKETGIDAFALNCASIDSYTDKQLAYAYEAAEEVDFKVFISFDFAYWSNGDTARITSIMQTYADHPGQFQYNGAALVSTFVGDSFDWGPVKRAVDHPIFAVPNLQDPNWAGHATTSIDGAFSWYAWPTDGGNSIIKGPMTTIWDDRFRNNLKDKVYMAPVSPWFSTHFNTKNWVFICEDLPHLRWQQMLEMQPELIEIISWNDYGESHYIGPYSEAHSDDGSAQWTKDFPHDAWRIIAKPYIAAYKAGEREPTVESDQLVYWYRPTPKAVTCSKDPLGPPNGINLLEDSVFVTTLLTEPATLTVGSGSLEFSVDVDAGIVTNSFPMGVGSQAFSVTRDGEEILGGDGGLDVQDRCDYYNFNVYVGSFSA
Put plainly: X-ray crystal structure (soak), […] Å. As to conditions: crystal soaked 2 min with saturating ligand; two glucose molecules in the binding cleft per protein molecule.

Experiment [2] concerns the target T1, AnGH71C. Put plainly: X-ray crystal structure (soak), […] Å. In kind it is binding.

On to `OC[C@H]1OC(O)[C@H](O)[C@@H](O)[C@@H]1O` (stereo partly drawn) [glucose], for which, at AnGH71C [1], the “X-ray crystal structure (soak), 1.37 Å” value is given as “glucose-soaked crystals each contain two glucose molecules located in the same position”. Regarding `OC[C@H]1O[C@H](O[C@@H]2[C@@H](O)[C@@H](O[C@@H]3[C@@H](O)[C@@H](O[C@H]4[C@H](O)[C@@H](CO)OC(O)[C@@H]4O)O[C@H](CO)[C@H]3O)O[C@H](CO)[C@H]2O)[C@H](O)[C@@H](O)[C@@H]1O` (stereo partly drawn) [nigerotetraose], the “X-ray crystal structure (soak), 1.92 Å” value at AnGH71C [2] (crystal soaked 2 min with saturating ligand, active-site cleft, -4 to -1 subsites among others, α- and β-anomers) is “Complexes of AnGH71C with glucose and nigerotriose/nigerotetraose were obtained by soaking crystals with ligand”. As for `OC[C@H]1O[C@H](O[C@@H]2[C@@H](O)[C@@H](O[C@H]3[C@H](O)[C@@H](CO)OC(O)[C@@H]3O)O[C@H](CO)[C@H]2O)[C@H](O)[C@@H](O)[C@@H]1O` (stereo partly drawn) [nigerotriose], the “X-ray crystal structure (soak), 1.92 Å” value at AnGH71C [2] (crystal soaked with nigerotetraose, nigerotriose in active-site cleft subsites, one extra on cleft surface in chain B) was “four protein molecules of the nigerotetraose-soaked crystals contain distinct combinations of nigerotriose and nigerotetraose”.
